Data set [1] has as its target T1, PfDHODH (Phe158–Ser569) (Plasmodium falciparum, UniProt Q08210).
T1 construct: enzyme activity determination of PfDHODH (Phe158–Ser569) and hDHODH (Met30–Arg396); made in house
Kind of data set: In vitro enzyme assay, PfDHODH (DCIP reduction). The data set is classed as biochemical. The conditions noted are these: for inhibitory activity against PfDHODH (in words): qualitative statement. As to the method: Protein expression, purification, and enzyme activity determination of PfDHODH (Phe158–Ser569) and hDHODH (Met30–Arg396) were performed according to our previous work. The enzymes were diluted to a final concentration of 10 nM using the assay buffer containing 50 mM HEPES (pH 8.0), 150 mM KCl, 0.1% Triton X-100 supplemented with 100 µM UQ0, and 120 µM DCIP. The mixture was transferred into a 96-well plate and incubated with or without various amounts of inhibitors for 5 min at room temperature, and then the dihydroorotate was added to a final concentration of 500 µM to initiate the reaction. The reaction was monitored by measuring the decrease in DCIP in the absorption at 600 nm at each 30 s over a period of 6 min. […] Percent inhibition relative to no inhibitor control was calculated by (1 − Vi/V0) × 100. For the determination of the IC50 value of the inhibitor, eight or nine different concentrations were applied. Each inhibitor concentration point was tested in triplicate, and the IC50 values were calculated using the sigmoidal fitting option of the program Origin 8.0 (Originlab, Northampton, MA, US).

Data set [2] concerns the target T2, hDHODH (Met30–Arg396) (Homo sapiens, UniProt Q02127).
T2 construct: enzyme activity determination of PfDHODH (Phe158–Ser569) and hDHODH (Met30–Arg396); made in house
Nature of the data set: In vitro enzyme assay, hDHODH (DCIP reduction). It is filed as biochemical. The conditions noted are these: for IC50: in vitro enzyme assay. As to the method: Protein expression, purification, and enzyme activity determination of PfDHODH (Phe158–Ser569) and hDHODH (Met30–Arg396) were performed according to our previous work. The enzymes were diluted to a final concentration of 10 nM using the assay buffer containing 50 mM HEPES (pH 8.0), 150 mM KCl, 0.1% Triton X-100 supplemented with 100 µM UQ0, and 120 µM DCIP. The mixture was transferred into a 96-well plate and incubated with or without various amounts of inhibitors for 5 min at room temperature, and then the dihydroorotate was added to a final concentration of 500 µM to initiate the reaction. The reaction was monitored by measuring the decrease in DCIP in the absorption at 600 nm at each 30 s over a period of 6 min. Brequinar and DSM1 were measured as the positive controls for hDHODH and PfDHODH, respectively. Percent inhibition relative to no inhibitor control was calculated by (1 − Vi/V0) × 100. For the determination of the IC50 value of the inhibitor, eight or nine different concentrations were applied. Each inhibitor concentration point was tested in triplicate, and the IC50 values were calculated using the sigmoidal fitting option of the program Origin 8.0 (Originlab, Northampton, MA, US).

The target of data set [3] is T1, PfDHODH (Phe158–Ser569). Also noted: method as in PMID 24073986. The conditions noted are these: previous work; read-out: IC50 against PfDHODH; cited from earlier work.
The target of data set [4] is T2, hDHODH (Met30–Arg396). Also noted: method as in PMID 24073986. The conditions noted are these: previous work; cited from earlier work.
For another data set, the system named is 3D7 cells. Set-up: method as in PMID 24073986. The conditions noted are these: read-out: IC50 parasite growth in vitro, 3D7 cells; cited from earlier work.
A further data set concerns Dd2 cells. Also noted: method as in PMID 24073986. The conditions noted are these: read-out: IC50 parasite growth in vitro, Dd2 cells; cited from earlier work.
Details of data set [5]: method as in PMID 24073986. The conditions noted are these: cited from earlier work.
Details of data set [6]: method as in PMID 24073986. The note with it: cited from earlier work. This is another data set of the same source.
On the set-up of data set [7]: method as in PMID 27641613. The note with it: compared with DSM 265; cited from earlier work.
On the set-up of data set [8]: method as in PMID 27641613. The note with it: compared with DSM 265; cited from earlier work. The source holds these as a separate data set.
On the set-up of data set [9]: method as in PMID 27641613. The note with it: compared with DSM 265; cited from earlier work. This is another data set of the same source.
The mark [10] stands for this setting: in vitro enzyme assay, read-out: IC50 (μM) PfDHODH.

Like-named read-outs stand apart in the source and are kept apart here.

T1 sequence (Q08210 158-569): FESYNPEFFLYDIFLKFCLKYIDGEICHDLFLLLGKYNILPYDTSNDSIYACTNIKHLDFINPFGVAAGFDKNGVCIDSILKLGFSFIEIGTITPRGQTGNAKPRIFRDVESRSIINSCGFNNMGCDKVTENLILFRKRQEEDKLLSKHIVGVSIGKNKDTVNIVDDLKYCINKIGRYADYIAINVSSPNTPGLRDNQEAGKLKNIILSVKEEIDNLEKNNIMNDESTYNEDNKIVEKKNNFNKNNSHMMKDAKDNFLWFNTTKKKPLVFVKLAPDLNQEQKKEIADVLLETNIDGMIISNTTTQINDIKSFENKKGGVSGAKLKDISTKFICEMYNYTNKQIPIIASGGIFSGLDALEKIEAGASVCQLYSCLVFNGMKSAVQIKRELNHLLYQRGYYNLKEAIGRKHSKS
T2 sequence (Q02127 29-395 limits assumed): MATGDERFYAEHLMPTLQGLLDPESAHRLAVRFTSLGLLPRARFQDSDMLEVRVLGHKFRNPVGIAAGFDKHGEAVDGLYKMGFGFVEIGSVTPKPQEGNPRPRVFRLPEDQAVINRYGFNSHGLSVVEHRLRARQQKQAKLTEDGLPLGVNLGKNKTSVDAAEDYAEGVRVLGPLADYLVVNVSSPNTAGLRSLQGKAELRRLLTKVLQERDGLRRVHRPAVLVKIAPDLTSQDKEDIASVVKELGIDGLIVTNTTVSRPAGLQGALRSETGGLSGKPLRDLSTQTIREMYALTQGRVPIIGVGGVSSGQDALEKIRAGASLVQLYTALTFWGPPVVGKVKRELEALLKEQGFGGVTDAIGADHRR

On to `O=C1COC2=C1C(=O)N(C1CC1)CN2c1ccc2ccccc2c1` [Compound 25, 3-Cyclopropyl-1-(naphthalen-2-yl)-2,3-dihydrofuro[2,3-d]pyrimidine-4,5(1H,6H)-dione], for which the melting point – broadly, the temperature of the solid-liquid transition – lay in the range of 128.8 to 129.5 °C. Moreover, at PfDHODH (Phe158–Ser569) [1], half-maximal inhibition (IC50) required 5 ± 1 µM. Also, the IC50 (usually the point on the concentration scale where inhibition reaches its midpoint) against hDHODH (Met30–Arg396) [2] is greater than 10 µM.
Regarding `CCOC(=O)C1=C(Nc2ccc3ccccc3c2)OCC1=O` [Compound 10], the IC50 on PfDHODH (Phe158–Ser569) [3] is 6 nM; with 3D7 cells, 15 nM; with Dd2 cells, 18 nM. Also, the “species selectivity over hDHODH” value at hDHODH (Met30–Arg396) [4] was > 14,000 fold. In data set [5], the “efficacy in vivo (in words)” value is reported as “less effective in vivo”. Besides, the “metabolic properties (in words)” value in data set [6] was “poor metabolic properties”.
For the molecule `CCCN1CN(c2ccc3ccccc3c2)C2=C(C(=O)CO2)C1=O` [Compound 24, 1-(Naphthalen-2-yl)-3-propyl-2,3-dihydrofuro[2,3-d]pyrimidine-4,5(1H,6H)-dione], the melting point fell in the range of 128.6 to 129.7 °C. Also, the IC50 on PfDHODH (Phe158–Ser569) [1] (setting [10]) is 12 ± 6 µM. Moreover, the IC50 at hDHODH (Met30–Arg396) [2] was greater than 10 µM.
`CCNC(=O)C1=C(Nc2ccccc2)OCC1=O` [Compound 12, N-Ethyl-4-oxo-2-(phenylamino)-4,5-dihydrofuran-3-carboxamide] showed a melting point of 146.9 to 147.4 °C. The IC50 on PfDHODH (Phe158–Ser569) [1] (setting [10]) is greater than 10 µM. Besides, the “inhibitory activity against PfDHODH (in words)” value (shortened to “inhibitory activity”) against PfDHODH (Phe158–Ser569) [1] is “inactive”. For the same molecule, the IC50 on hDHODH (Met30–Arg396) [2] stood at 2.4 ± 0.1 µM.
For the molecule `Cc1cc(Nc2ccc(C(F)(F)F)nc2)n2nc(C(C)(F)F)nc2n1` [Compound 9], in data set [7], the “solubility (in words)” value is listed as “improved solubility”. Besides, the “intrinsic clearance (in words)” value in [8] was “lower intrinsic clearance”. For the same molecule, the “plasma exposure after oral dosing (in words)” value in data set [9] was “increased plasma exposure after oral dosing”.
For the molecule `NN1CN(c2ccc3ccccc3c2)C2=C(C(=O)CO2)C1=O` [Compound 26, 3-Amino-1-(naphthalen-2-yl)-2,3-dihydrofuro[2,3-d]pyrimidine-4,5(1H,6H)-dione], the melting point was in the range of 168.4 to 169.2 °C. Also, on PfDHODH (Phe158–Ser569) [1] (compared with compound 20), the “fold more active against PfDHODH than compound 20” value is given as 3 fold. On PfDHODH (Phe158–Ser569) [1] (setting [10]), the IC50 worked out at 0.023 ± 0.001 µM. In addition, on hDHODH (Met30–Arg396) [2] (PfDHODH versus hDHODH), the “species selectivity over hDHODH” value is given as greater than 400 fold. Further, at hDHODH (Met30–Arg396) [2], the IC50 was greater than 10 µM.
`O=C(O)C1=C(Nc2ccc3ccccc3c2)OCC1=O` [Compound 11, 2-(Naphthalen-2-ylamino)-4-oxo-4,5-dihydrofuran-3-carboxylic acid] yielded a melting point of 164.4 to 165 °C. Also, the IC50 on PfDHODH (Phe158–Ser569) [1] (setting [10]) was found to be 0.106 ± 0.009 µM. For the same molecule, the “inhibitory activity” value at PfDHODH (Phe158–Ser569) [1] was “lower inhibitory activity in comparison with 10”. The IC50 against hDHODH (Met30–Arg396) [2] was greater than 10 µM.
Turning to `CCN1CN(c2ccc3c(c2)CCC3)C2=C(C(=O)CO2)C1=O` [Compound 21, 1-(2,3-Dihydro-1H-inden-5-yl)-3-ethyl-2,3-dihydrofuro[2,3-d]pyrimidine-4,5(1H,6H)-dione], the melting point lay within 128.6 to 129.4 °C. Further, on PfDHODH (Phe158–Ser569) [1] (setting [10]), the IC50 is greater than 10 µM. Further, the IC50 against hDHODH (Met30–Arg396) [2] was greater than 10 µM.
Regarding `CCN1CN(c2ccc3ccccc3c2)C2=C(C(=O)CO2)C1=O` [Compound 23, 3-Ethyl-1-(naphthalen-2-yl)-2,3-dihydrofuro[2,3-d]pyrimidine-4,5(1H,6H)-dione], the melting point was 128.3 to 129 °C. In addition, at PfDHODH (Phe158–Ser569) [1] (setting [10]), the IC50 is 4 ± 1 µM. The molecule also gave an IC50 against hDHODH (Met30–Arg396) [2] greater than 10 µM.
The matching figures for `CCNC(=O)C1=C(Nc2ccc3ccccc3c2)OCC1=O` [Compound 15, N-Ethyl-2-(naphthalen-2-ylamino)-4-oxo-4,5-dihydrofuran-3-carboxamide]: 121.8 to 123 °C, 4.8 ± 0.4 µM and greater than 10 µM.
`O=C1COC(Nc2ccc3ccccc3c2)=C1C(=O)NC1CC1` [Compound 18, N-Cyclopropyl-2-(naphthalen-2-ylamino)-4-oxo-4,5-dihydrofuran-3-carboxamide] displayed a melting point of 140.8 to 141.6 °C. For the same molecule, the half-inhibitory concentration (IC50) on PfDHODH (Phe158–Ser569) [1] (setting [10]) turned out to be 6 ± 1 µM. The IC50 at hDHODH (Met30–Arg396) [2] was greater than 10 µM.
Regarding `O=C1COC(Nc2ccc3ccccc3c2)=C1C(=O)NCC1CC1` [Compound 19, N-(Cyclopropylmethyl)-2-(naphthalen-2-ylamino)-4-oxo-4,5-dihydrofuran-3-carboxamide], the melting point lay in the range of 164.8 to 165.3 °C. Moreover, the IC50 on PfDHODH (Phe158–Ser569) [1] (setting [10]) is greater than 10 µM. In addition, the “inhibitory activity” value against PfDHODH (Phe158–Ser569) [1] was “lost the inhibitory activity”. The half-inhibitory concentration (IC50) against hDHODH (Met30–Arg396) [2] was greater than 10 µM.
Turning to `CNC(=O)C1=C(Nc2ccc3ccccc3c2)OCC1=O` [Compound 14, N-Methyl-2-(naphthalen-2-ylamino)-4-oxo-4,5-dihydrofuran-3-carboxamide], the melting point lay in the range of 126.3 to 126.9 °C. In addition, the IC50 on PfDHODH (Phe158–Ser569) [1] (setting [10]) was found to be 9 ± 1 µM. This molecule also gave an IC50 against hDHODH (Met30–Arg396) [2] greater than 10 µM.
In turn, `NNC(=O)C1=C(Nc2ccc3ccccc3c2)OCC1=O` [Compound 20, 2-(Naphthalen-2-ylamino)-4-oxo-4,5-dihydrofuran-3-carbohydrazide] returned a melting point of 167.3 to 167.9 °C. In addition, the IC50 at PfDHODH (Phe158–Ser569) [1] (setting [10]) amounted to 0.07 ± 0.01 µM. The molecule also showed an IC50 against hDHODH (Met30–Arg396) [2] greater than 10 µM.
The corresponding values for `CCNC(=O)C1=C(Nc2ccc3c(c2)CCC3)OCC1=O` [Compound 13, 2-[(2,3-Dihydro-1H-inden-5-yl)amino]-N-ethyl-4-oxo-4,5-dihydrofuran-3-carboxamide] are 127.7 to 128.2 °C, greater than 10 µM and greater than 10 µM.
As for `CCCNC(=O)C1=C(Nc2ccc3ccccc3c2)OCC1=O` [Compound 16, 2-(Naphthalen-2-ylamino)-4-oxo-N-propyl-4,5-dihydrofuran-3-carboxamide], the IC50 on PfDHODH (Phe158–Ser569) [1] (setting [10]) and at hDHODH (Met30–Arg396) [2] was greater than 10 µM throughout. The “inhibitory activity” value against PfDHODH (Phe158–Ser569) [1] is “lost their activities”.
`CN1CN(c2ccc3ccccc3c2)C2=C(C(=O)CO2)C1=O` [Compound 22, 3-Methyl-1-(naphthalen-2-yl)-2,3-dihydrofuro[2,3-d]pyrimidine-4,5(1H,6H)-dione] had a melting point of 127.9 to 128.5 °C. Moreover, at PfDHODH (Phe158–Ser569) [1] (setting [10]), the IC50 came out at 8 ± 1 µM. The same molecule displayed an IC50 at hDHODH (Met30–Arg396) [2] greater than 10 µM.

The values above are taken from paper PMC6099574, “Synthesis, Design, and Structure–Activity Relationship of the Pyrimidone Derivatives as Novel Selective Inhibitors of Plasmodium falciparum Dihydroorotate Dehydrogenase” (Molecules : A Journal of Synthetic Chemistry and Natural …, 2018).
